Measurements published in ChEMBL document CHEMBL6153132 (J Med Chem, 2025).
The source made the active and inactive calls. No cut-off for these calls is given here.

Assays:
cells = conditions: Homo sapiens, Cal27CisR, 72 h
CAL-27 [1] = test: cells; conditions: Homo sapiens, CAL-27, 72 h
Plasmodium falciparum [2] = test: microbe, parasite or virus in culture; conditions: Dd2, 72 h
[3] = molecular target: T1, Protein deacetylase HDAC6 (Homo sapiens, UniProt Q9UBN7); test: Inhibition of human HDAC6 using ZMAL(Z-Lys(Ac)-AMC as substrate preincubated for 15 mins followed by substrate addition and measured after 90 mins by microplate reader analysis
T1 sequence (Q9UBN7 whole entry): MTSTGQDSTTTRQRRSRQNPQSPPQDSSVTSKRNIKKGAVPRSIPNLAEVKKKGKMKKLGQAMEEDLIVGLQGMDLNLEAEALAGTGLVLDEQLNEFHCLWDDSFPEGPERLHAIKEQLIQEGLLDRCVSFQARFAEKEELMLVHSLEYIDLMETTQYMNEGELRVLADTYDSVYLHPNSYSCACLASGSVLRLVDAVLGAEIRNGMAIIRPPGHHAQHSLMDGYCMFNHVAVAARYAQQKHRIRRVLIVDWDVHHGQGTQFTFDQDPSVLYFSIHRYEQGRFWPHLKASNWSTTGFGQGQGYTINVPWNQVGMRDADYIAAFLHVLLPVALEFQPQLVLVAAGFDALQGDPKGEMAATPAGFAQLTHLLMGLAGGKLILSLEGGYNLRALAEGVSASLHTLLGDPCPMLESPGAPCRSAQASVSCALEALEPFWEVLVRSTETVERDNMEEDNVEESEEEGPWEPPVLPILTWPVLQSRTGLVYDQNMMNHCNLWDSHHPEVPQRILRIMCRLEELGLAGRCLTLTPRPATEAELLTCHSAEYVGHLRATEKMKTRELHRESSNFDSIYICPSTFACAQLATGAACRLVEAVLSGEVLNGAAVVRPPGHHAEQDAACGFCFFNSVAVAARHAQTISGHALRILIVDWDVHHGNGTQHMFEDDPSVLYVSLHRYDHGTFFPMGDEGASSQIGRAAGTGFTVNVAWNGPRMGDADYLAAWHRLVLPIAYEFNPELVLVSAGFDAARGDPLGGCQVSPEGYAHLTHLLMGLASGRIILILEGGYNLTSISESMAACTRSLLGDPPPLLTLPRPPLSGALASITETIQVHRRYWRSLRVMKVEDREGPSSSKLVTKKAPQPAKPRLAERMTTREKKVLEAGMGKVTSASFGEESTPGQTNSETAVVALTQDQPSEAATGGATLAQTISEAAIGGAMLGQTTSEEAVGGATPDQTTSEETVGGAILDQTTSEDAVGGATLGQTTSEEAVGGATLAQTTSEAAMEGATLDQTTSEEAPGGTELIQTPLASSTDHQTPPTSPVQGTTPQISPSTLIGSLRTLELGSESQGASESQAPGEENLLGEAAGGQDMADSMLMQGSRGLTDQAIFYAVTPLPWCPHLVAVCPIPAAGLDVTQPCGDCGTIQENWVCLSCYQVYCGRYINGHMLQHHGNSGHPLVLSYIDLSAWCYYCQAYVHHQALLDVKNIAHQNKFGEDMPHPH

Histone deacetylase 3 = Histone deacetylase 3 (Homo sapiens, UniProt O15379); test: Inhibition of human HDAC3 using ZMAL(Z-Lys(Ac)-AMC as substrate preincubated for 60 mins followed by substrate addition and measured after 90 mins by microplate reader analysis
Histone deacetylase 1 = Histone deacetylase 1 (Homo sapiens, UniProt Q13547); test: Inhibition of human HDAC1 using ZMAL(Z-Lys(Ac)-AMC as substrate preincubated for 60 mins followed by substrate addition and measured after 90 mins by microplate reader analysis
Plasmodium falciparum [4] = test: microbe, parasite or virus in culture; conditions: 3D7, 72 h
CAL-27 [5] = test: Cytotoxicity against human CAL-27 cells assessed as cell viability incubated for 72 hrs by MTS assay; assay type: functional, cell-based; conditions: CAL-27, 72 h
[6] = Cytotoxicity against human Cal27CisR cells assessed as cell viability incubated for 72 hrs by MTS assay; assay type: functional, cell-based
A2780 = test: Cytotoxicity against human A2780 cells assessed as cell viability incubated for 72 hrs by MTS assay; assay type: functional, cell-based; conditions: A2780, 72 h
A2780cisR = test: Cytotoxicity against human A2780 cisR cells assessed as cell viability up to 100 uM incubated for 72 hrs by MTS assay; assay type: functional, cell-based
[7] = Metabolic stability in human liver microsome assessed as intrinsic clearance; assay type: ADME; conditions: microsomes
[8] = Metabolic stability in human liver microsome assessed as half life; assay type: ADME, microsomes

Chain of Histone deacetylase 3 (O15379 whole entry): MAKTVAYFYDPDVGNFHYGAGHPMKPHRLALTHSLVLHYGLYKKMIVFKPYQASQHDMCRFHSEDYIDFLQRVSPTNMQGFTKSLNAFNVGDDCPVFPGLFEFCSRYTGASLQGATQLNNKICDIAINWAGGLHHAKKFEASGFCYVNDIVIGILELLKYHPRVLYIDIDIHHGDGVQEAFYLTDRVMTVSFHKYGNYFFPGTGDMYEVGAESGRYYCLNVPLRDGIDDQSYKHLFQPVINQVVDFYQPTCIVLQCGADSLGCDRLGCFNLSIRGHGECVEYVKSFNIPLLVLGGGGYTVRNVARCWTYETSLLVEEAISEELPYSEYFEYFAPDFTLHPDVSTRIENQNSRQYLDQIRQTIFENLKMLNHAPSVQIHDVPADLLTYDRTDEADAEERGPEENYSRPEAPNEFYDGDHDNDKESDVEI
Chain of Histone deacetylase 1 (Q13547 whole entry): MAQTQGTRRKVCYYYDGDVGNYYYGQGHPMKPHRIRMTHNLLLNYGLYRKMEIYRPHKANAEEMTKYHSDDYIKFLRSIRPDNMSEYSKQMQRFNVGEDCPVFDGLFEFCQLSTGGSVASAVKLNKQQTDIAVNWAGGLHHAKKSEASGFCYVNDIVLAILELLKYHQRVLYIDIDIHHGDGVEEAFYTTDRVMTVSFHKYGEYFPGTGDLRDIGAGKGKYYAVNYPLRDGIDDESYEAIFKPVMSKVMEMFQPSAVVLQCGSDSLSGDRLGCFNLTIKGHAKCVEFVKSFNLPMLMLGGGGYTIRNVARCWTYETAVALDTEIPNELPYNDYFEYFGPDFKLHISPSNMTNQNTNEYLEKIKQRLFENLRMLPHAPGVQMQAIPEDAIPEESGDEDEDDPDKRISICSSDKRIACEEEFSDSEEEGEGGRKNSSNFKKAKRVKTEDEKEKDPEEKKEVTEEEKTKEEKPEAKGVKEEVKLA

SMILES	IC50 (cells)	IC50 (CAL-27 [1])	IC50 (Plasmodium falciparum [2])	IC50 [3]	IC50 (Histone deacetylase 3)	IC50 (Histone deacetylase 1)	IC50 (Plasmodium falciparum [4])	CLH [7]	half-life ([8]; liver microsomes)	t1/2 ([8]; microsomes)	IC50 (CAL-27 [5])	IC50 [6]	IC50 (A2780)	Activity (A2780cisR)
Nc1cc(F)ccc1NC(=O)/C=C/c1cnn(C/C=C/c2ccccc2)c1											43.1 µM	49.4 µM	12.9 µM	inactive
CN(C)c1ccc(C(=O)N(CC(=O)NCc2ccccc2)Cc2ccc(C(=O)Nc3ccccc3N)cc2)cc1								79.4 µL/min/mg	17.5 min					
CN(C)c1ccc(C(=O)N(CC(=O)NCc2ccccc2)Cc2ccc(C(=O)NCCSSCCNC(=O)c3ccc(CN(CC(=O)NCc4ccccc4)C(=O)c4ccc(N(C)C)cc4)cc3)cc2)cc1	> 100 µM	> 100 µM	> 100 µM	> 10 µM		4.54 µM	> 100 µM							
CN(C)c1ccc(C(=O)N(CC(=O)NCc2ccccc2)Cc2ccc(C(=O)O)cc2)cc1	> 100 µM	74.3 µM	> 100 µM	> 10 µM		13.8 µM	> 100 µM							
CCCNNC(=O)c1ccc(CN(CC(=O)NCc2ccccc2)C(=O)c2ccc(N(C)C)cc2)cc1								92.2 µL/min/mg		15.04 min				
CSc1ccccc1C(=O)Nc1ccc(CN(CC(=O)NCc2ccccc2)C(=O)c2ccc(N(C)C)cc2)cc1	> 100 µM	> 100 µM		> 10 µM	> 10 µM	> 10 µM	> 100 µM							
CN(C)c1ccc(C(=O)N(CC(=O)NCc2ccccc2)Cc2ccc(-c3nnc(C(F)(F)F)o3)cc2)cc1	> 100 µM	> 100 µM	36.8 µM	> 10 µM		> 10 µM	34.2 µM							
CC(=O)SCC(=O)Nc1ccc(CN(CC(=O)NCc2ccccc2)C(=O)c2ccc(N(C)C)cc2)cc1	> 100 µM	> 100 µM	> 100 µM				> 100 µM							
CSc1ccccc1C(=O)NCCCCCCCN(CC(=O)NCc1ccccc1)C(=O)c1ccc(N(C)C)cc1	> 100 µM	70.9 µM	23 µM	> 10 µM	> 10 µM	> 10 µM	34.9 µM							
CN(C)c1ccc(C(=O)N(CCCCCCNC(=O)c2ccccc2O)CC(=O)NCc2ccccc2)cc1	> 100 µM			> 10 µM		> 10 µM								
CNC(=O)CCCCCN(CC(=O)NCc1ccccc1)C(=O)c1ccc(N(C)C)cc1	> 100 µM	> 100 µM	> 100 µM	> 10 µM		> 10 µM	> 100 µM							
CN(C)c1ccc(C(=O)N(CCCCCC(=O)O)CC(=O)NCc2ccccc2)cc1	> 100 µM	> 100 µM	> 100 µM	> 10 µM		> 10 µM	> 100 µM							

Further lines, with some results ahead:

IC50 (cells)	IC50 (CAL-27 [1])	IC50 (Plasmodium falciparum [2])	IC50 [3]	IC50 (Histone deacetylase 3)	IC50 (Histone deacetylase 1)	IC50 (Plasmodium falciparum [4])	CLH [7]	half-life ([8]; liver microsomes)	t1/2 ([8]; microsomes)	SMILES	IC50 (CAL-27 [5])	IC50 [6]	IC50 (A2780)	Activity (A2780cisR)
55 µM	63.7 µM	37.6 µM	> 10 µM	> 10 µM	> 10 µM					CSc1ccccc1C(=O)NCCCCCN(CC(=O)NCc1ccccc1)C(=O)c1ccc(N(C)C)cc1				
28.8 µM	33.4 µM	85.1 µM				> 100 µM				CC(=O)SCC(=O)NCCCCCCN(CC(=O)NCc1ccccc1)C(=O)c1ccc(N(C)C)cc1				
> 100 µM	> 100 µM	23.7 µM	> 10 µM		> 10 µM	18.1 µM				CN(C)c1ccc(C(=O)N(CC(=O)NCc2ccccc2)Cc2ccc(-c3nnc(C(F)F)o3)cc2)cc1				
61.3 µM	79.4 µM	28.7 µM	> 10 µM	> 10 µM	> 10 µM	56.9 µM				CSc1ccccc1NC(=O)CCCCCN(CC(=O)NCc1ccccc1)C(=O)c1ccc(N(C)C)cc1				
> 100 µM	98.7 µM	> 100 µM	> 10 µM		7.1 µM	11.7 µM				CN(C)c1ccc(C(=O)N(CCCCCC(=O)NCCSSCCNC(=O)CCCCCN(CC(=O)NCc2ccccc2)C(=O)c2ccc(N(C)C)cc2)CC(=O)NCc2ccccc2)cc1				
65.6 µM	68.9 µM	6.66 µM	> 10 µM	> 10 µM	> 10 µM	8.97 µM				CSc1ccccc1C(=O)NCCCCCCN(CC(=O)NCc1ccccc1)C(=O)c1ccc(N(C)C)cc1				
